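The compound was tested at five concentrations on cells cultured in 96-well plates, with a 48-hour exposure period. At the TGI there is no net growth.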
Tests used:
Assay in all cases: growth of human tumour cells (NCI), 48 h
HL-60(TB) leukemia = system: HL-60(TB) leukemia
RXF 393 renal = system: RXF 393 renal
NCI/ADR-RES ovarian = system: NCI/ADR-RES ovarian
SK-MEL-2 melanoma = system: SK-MEL-2 melanoma
PC-3 prostate = system: PC-3 prostate
SK-OV-3 ovarian = system: SK-OV-3 ovarian
A498 renal = system: A498 renal
OVCAR-4 ovarian = system: OVCAR-4 ovarian
SF-295 CNS = system: SF-295 CNS
CCRF-CEM leukemia = system: CCRF-CEM leukemia
MDA-N = system: MDA-N
SF-539 CNS = system: SF-539 CNS
UACC-257 melanoma = system: UACC-257 melanoma
TK-10 renal = system: TK-10 renal
MDA-MB-231 breast = system: MDA-MB-231 breast
SW-620 colon = system: SW-620 colon
DU-145 prostate = system: DU-145 prostate
HCT-116 colon = system: HCT-116 colon
LOX IMVI melanoma = system: LOX IMVI melanoma
OVCAR-3 ovarian = system: OVCAR-3 ovarian

Row | SMILES | TGI (HL-60(TB) leukemia) [µM] | TGI (RXF 393 renal) [µM] | TGI (NCI/ADR-RES ovarian) [µM] | TGI (SK-MEL-2 melanoma) [µM] | TGI (PC-3 prostate) [µM] | TGI (SK-OV-3 ovarian) [µM] | TGI (A498 renal) [µM] | TGI (OVCAR-4 ovarian) [µM] | TGI (SF-295 CNS) [µM] | TGI (CCRF-CEM leukemia) [µM] | TGI (MDA-N) [µM] | TGI (SF-539 CNS) [µM] | TGI (UACC-257 melanoma) [µM] | TGI (TK-10 renal) [µM] | TGI (MDA-MB-231 breast) [µM] | TGI (SW-620 colon) [µM] | TGI (DU-145 prostate) [µM] | TGI (HCT-116 colon) [µM] | TGI (LOX IMVI melanoma) [µM] | TGI (OVCAR-3 ovarian) [µM]
1 | CC(C)(C)C1CCC2c3c([nH]c4ccccc34)C3C(=O)N(c4cccc(Cl)c4)C(=O)C3C2C1 (stereo not given) | 13 | 22.6 | 34 | 35.1 | 36.9 | 63.2 | 53.7 | 58.1 | 44.7 | > 91.8 | 24.7 | 35.5 | 29.6 | 39 | 29.6 | 23.2 | 33.2 | 19.3 | 20.8 | 33.3
2 | COc1ccc(-c2cn3c(nc4ccccc43)c(C)n2)cc1 | > 100 | > 88.9 | > 100 | > 100 | > 100 | 39.2 | > 100 | > 100 | > 100 | > 100 | > 100 | > 100 | > 100 | > 100 | > 100 | > 100 | > 100 | > 100 | > 100 | > 100
3 | C/C=C/C=C/C1=NN(c2cccc(S(=O)(=O)O)c2)C2(C1)C(Cl)C(=O)N2c1nc2ccccc2s1 (stereo not given) | 33.1 | 24.3 | > 82.7 | 30.2 | 26.3 | 33.9 | 31.8 | 29.2 | 31 | 13.1 | 29 | 27.8 | 33.5 | 27.8 | 28.9 | 43.1 | 26.2 | 27.7 | 24.5 | 24.7
4 | COC(=O)C1=C(O)C(C(=O)OC)[C@]2(O)[C@H](C(=O)OC)[C@H]1C[C@@H](c1ccccc1OC)[C@H]2C(=O)OC (stereo not given in full) | 10.5 | 20.2 | 8.89 | 20.1 | 20.7 | > 50.9 | 17.4 | 31.3 | 25.6 | 21.1 | 4.79 | > 23.7 | > 51.6 | > 54.7 | 29.7 | 19.6 | 26.2 | 12.9 | 9.35 | 35.4
5 | CC(C)Cc1ccc(C(C)/C=C2\CCC(CN3CCOCC3)C2=O)cc1 (stereo not given) | 20.7 | 22 | 29.3 | 31.3 | 25.4 | 32.8 | 27 | 33.4 | 29.3 | 17.8 | 24.7 | 19.8 | 14.7 | 14.9 | 4.2 | 10.8 | 26.6 | 18.7 | 7.73 | 9.95

Reference: PubChem BioAssay (NCI)
